Measurements reported in patent publication US10421754B2, “Quinazoline derivative” (CSPC ZHONGQI PHARMACEUTICAL TECHNOLOGY (SHIJIAZHUANG) CO., …, priority 2014, dated 2019).

Tests used:
3T3swiss = test: In vitro cell experiment (MTT), 3T3swiss; assay type: cell-based; settings: Fibroblast, 72 h, mouse fibroblasts (PDGFR overexpressing)
Description: (§1) Cells in logarithmic growth phase were seeded at a certain density in a 96-well plate (200 μL/well). The cells were allowed to grow for 24 h and subsequently treated with different concentrations of drugs (including a blank group and a control group) and incubated for 72 h at 37° C. Each concentration in a given experiment was tested in triplicate. After 72 h of exposure, 20 μL of the MTT labeling reagent was added to the medium (the final concentration of MTT was 0.5 mg/mL), and the cells were incubated for additional 4 h at 37° C. Following this process, 180 μL of the medium was removed and 130 μL of DMSO was added to each well, or the medium was completely removed and 150 μL of DMSO was added to each well. Then the plate was shaken and mixed in a micro-oscillator. Finally the optical density (OD) of each sample was measured in a micro-plate reader at 550 nm. Cell inhibition rate was calculated according to the following formula: […]
(§2) According to cell inhibition rates, IC50 was calculated by LOGIT method. The experiments were repeated twice and the data was expressed as means±SD.

PDGFRβ = PDGFRβ (Homo sapiens, UniProt P09619); test: In vitro enzyme experiment (ELISA), PDGFRβ; assay type: biochemical; settings: Poly (Glu, Tyr)4:1 substrate, 5 μM ATP
Description: PDGFRβ: Platelet-derived growth factor receptor β
(§3) ELISA: The enzyme plate was coated by enzyme reaction substrate (Poly (Glu, Tyr)4:1) at a density of 20 μg/ml. Then the enzyme, the sample and 5 μM ATP were mixed in the well to react. After the reaction, the substrate phosphorylation was detected by anti-phosphotyrosine monoclonal antibody (4G10). In the next step, the goat-anti-mouse IgG linking with horse radish peroxidase (HRP) and tetramethylbenzidine (TMB) were added sequentially in the well to evaluate the level of substrate phosphorylation by the degree of color depth. In the experiment, a blank group without tyrosine kinase and a control group with the corresponding concentration of DMSO were established. Finally, 50 μL/well of H2SO4 at a concentration of 0.18M was added in each well to stop the reaction. The optical density (OD) of each sample was measured in a micro-plate reader at 450 nm.
(§4) The relative inhibition rate of the compound against tyrosine kinase protein was determined.
(§5) According to the inhibition rates at different concentrations, IC50 was calculated by LOGIT method. The experiments were repeated three times, and the average of three IC50 values was the final index to evaluate the ability of inhibition.

Bel-7402 = test: In vitro cell experiment (MTT), Bel-7402; assay type: cell-based; settings: 72 h, human hepatoma carcinoma cells
Description: as §1, §2

SK-OV-3 = test: In vitro cell experiment (MTT), SK-OV-3; assay type: cell-based; settings: 72 h, human ovarian carcinoma cells (EGFR2 overexpressing)
Method in brief: (§6)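 A 72 h MTT assay at 37° C, begun after 24 h cell growth, measures OD at 550 nm. Inhibition rates convert to IC50 by LOGIT.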

BTK = BTK (Homo sapiens, UniProt Q06187); test: In vitro enzyme experiment (ELISA), BTK; assay type: biochemical; settings: Poly (Glu, Tyr)4:1 substrate, 5 μM ATP
Description: BTK: Bruton tyrosine kinase
as §3, §4, §5

RET = RET (Homo sapiens, UniProt P07949); test: In vitro enzyme experiment (ELISA), RET; assay type: biochemical; settings: Poly (Glu, Tyr)4:1 substrate, 5 μM ATP
Description: RET: A receptor involved in thyroid cancer
as §3, §4, §5

EGFR = EGFR (Homo sapiens, UniProt P00533); test: In vitro enzyme experiment (ELISA), EGFR; assay type: biochemical; settings: Poly (Glu, Tyr)4:1 substrate, 5 μM ATP
Description: EGFR: Human epidermal growth factor receptor 1
as §3, §4, §5

A431 = test: In vitro cell experiment (MTT), A431; assay type: cell-based; settings: A-431, 72 h, human epidermoid carcinoma (EGFR1 overexpressing)
Description: as §1, §2

A549 = test: In vitro cell experiment (MTT), A549; assay type: cell-based; settings: 72 h, human non-small-cell lung carcinoma cells (EGFR1 wildtype)
Method in brief: as §6

FLT-1 = FLT-1 (Homo sapiens, UniProt P17948); test: In vitro enzyme experiment (ELISA), FLT-1; assay type: biochemical; settings: Poly (Glu, Tyr)4:1 substrate, 5 μM ATP
Description: FLT-1: Human vascular endothelial growth factor receptor 1
as §3, §4, §5

A375 = test: In vitro cell experiment (MTT), A375; assay type: cell-based; settings: A-375, 72 h, human melanoma cells (KDR expressing)
Description: as §1, §2

HT-29 = test: In vitro cell experiment (MTT), HT-29; assay type: cell-based; settings: 72 h, human colon carcinoma cells (expressing both c-KIT and PDGFR)
Description: as §1, §2

HCC827 = test: In vitro cell experiment (MTT), HCC827; assay type: cell-based; settings: 72 h, human non-small cell lung carcinoma (EGFR1 19 exon mutation)
Method in brief: as §6

HCT116 = test: In vitro cell experiment (MTT), HCT116; assay type: cell-based; settings: HCT-116, 72 h, human colon carcinoma cells
Method in brief: as §6

[1] = Mouse maximum tolerated dose (MTD) experiment; settings: in vivo, mice, oral, administered 7 days then observed 7 days
Method in brief: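 Oral dosing for 7 days at twofold-spaced levels from 31.25 up to 1000 mg/kg, three randomized, weight-matched healthy mice per level. Animals were then watched for a further 7 drug-free days.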

FGFR-1 = FGFR-1 (Homo sapiens, UniProt P11362); test: In vitro enzyme experiment (ELISA), FGFR-1; assay type: biochemical; settings: Poly (Glu, Tyr)4:1 substrate, 5 μM ATP
Description: FGFR-1: Fibroblast growth factor receptor 1
as §3, §4, §5

PC-9 = test: In vitro cell experiment (MTT), PC-9; assay type: cell-based; settings: 72 h, human non-small-cell lung carcinoma cells (EGFR1 19 exon mutation)
Description: as §1, §2

KDR = KDR (Homo sapiens, UniProt P35968); test: In vitro enzyme experiment (ELISA), KDR; assay type: biochemical; settings: Poly (Glu, Tyr)4:1 substrate, 5 μM ATP
Description: KDR: Human vascular endothelial growth factor receptor 2
as §3, §4, §5

CFPAC-1 = test: In vitro cell experiment (MTT), CFPAC-1; assay type: cell-based; settings: 72 h, human pancreatic carcinoma cells
Description: as §1, §2

HUVEC = test: In vitro cell experiment (MTT), HUVEC; assay type: cell-based; settings: 72 h, human umbilical vein endothelial cell (KDR overexpressing)
Description: as §1, §2

TT = test: In vitro cell experiment (MTT), TT; assay type: cell-based; settings: 72 h, human thyroid carcinoma cells (RET C634W mutation)
Description: as §1, §2

SGC7901 = test: In vitro cell experiment (MTT), SGC7901; assay type: cell-based; settings: SGC-7901, 72 h, human gastric carcinoma cells
Description: as §1, §2

H292 = test: In vitro cell experiment (MTT), H292; assay type: cell-based; settings: NCI-H292, 72 h, human lung carcinoma cells (EGFR1 overexpressing)
Method in brief: as §6

Eca109 = test: In vitro cell experiment (MTT), Eca109; assay type: cell-based; settings: ECa-109, 72 h, human esophageal carcinoma cells
Description: as §1, §2

AXL = AXL (Homo sapiens, UniProt P30530); test: In vitro enzyme experiment (ELISA), AXL; assay type: biochemical; settings: Poly (Glu, Tyr)4:1 substrate, 5 μM ATP
Description: as §3, with “AXL: Anaplastic lymphoma kinase Methods: ELISA:” for “ELISA:”, “nm. The relative inhibition rate of the compound against tyrosine kinase protein was determined. According to the inhibition rates at different concentrations, IC50 was calculated by LOGIT method. The experiments were repeated three times, and the average of three IC50 values was the final index to evaluate the ability of inhibition.” for “nm.”

A498 = test: In vitro cell experiment (MTT), A498; assay type: cell-based; settings: 72 h, human renal carcinoma cells
Description: as §1, §2

Chain of FLT-1 (P17948 27-1338): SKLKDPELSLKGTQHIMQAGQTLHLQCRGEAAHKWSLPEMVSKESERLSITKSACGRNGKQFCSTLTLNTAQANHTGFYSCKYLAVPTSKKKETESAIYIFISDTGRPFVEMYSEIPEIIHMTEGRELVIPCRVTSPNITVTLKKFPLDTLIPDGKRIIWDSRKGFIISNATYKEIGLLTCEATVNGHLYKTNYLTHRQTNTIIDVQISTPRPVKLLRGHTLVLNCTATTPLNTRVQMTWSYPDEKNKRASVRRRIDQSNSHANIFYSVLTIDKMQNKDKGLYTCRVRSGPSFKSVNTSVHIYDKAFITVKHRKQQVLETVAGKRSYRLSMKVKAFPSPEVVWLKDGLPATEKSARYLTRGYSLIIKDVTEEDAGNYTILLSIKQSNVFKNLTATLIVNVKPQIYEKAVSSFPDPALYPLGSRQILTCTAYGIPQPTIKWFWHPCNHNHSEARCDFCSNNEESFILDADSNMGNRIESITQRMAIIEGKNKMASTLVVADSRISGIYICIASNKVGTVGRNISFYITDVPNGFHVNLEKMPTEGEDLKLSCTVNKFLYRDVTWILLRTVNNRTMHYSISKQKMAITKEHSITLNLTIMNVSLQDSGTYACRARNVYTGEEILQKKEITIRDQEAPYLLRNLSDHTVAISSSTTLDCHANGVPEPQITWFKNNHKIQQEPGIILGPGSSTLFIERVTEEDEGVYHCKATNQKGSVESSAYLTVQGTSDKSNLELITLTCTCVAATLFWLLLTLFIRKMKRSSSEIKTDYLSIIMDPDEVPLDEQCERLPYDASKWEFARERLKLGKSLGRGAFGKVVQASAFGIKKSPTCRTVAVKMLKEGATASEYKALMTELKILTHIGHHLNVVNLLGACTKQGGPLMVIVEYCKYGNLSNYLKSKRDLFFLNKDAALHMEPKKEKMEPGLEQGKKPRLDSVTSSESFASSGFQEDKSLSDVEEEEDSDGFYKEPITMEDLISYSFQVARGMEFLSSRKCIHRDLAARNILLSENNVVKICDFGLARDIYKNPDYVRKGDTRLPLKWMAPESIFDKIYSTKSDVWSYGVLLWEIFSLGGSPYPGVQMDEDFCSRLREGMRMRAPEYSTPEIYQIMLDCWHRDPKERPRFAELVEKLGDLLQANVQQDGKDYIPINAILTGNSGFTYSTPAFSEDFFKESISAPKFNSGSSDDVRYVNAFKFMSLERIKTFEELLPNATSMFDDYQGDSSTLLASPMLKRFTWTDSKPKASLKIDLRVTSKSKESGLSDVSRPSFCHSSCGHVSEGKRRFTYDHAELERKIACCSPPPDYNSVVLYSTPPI
Chain of RET (P07949 29-1114, species assumed): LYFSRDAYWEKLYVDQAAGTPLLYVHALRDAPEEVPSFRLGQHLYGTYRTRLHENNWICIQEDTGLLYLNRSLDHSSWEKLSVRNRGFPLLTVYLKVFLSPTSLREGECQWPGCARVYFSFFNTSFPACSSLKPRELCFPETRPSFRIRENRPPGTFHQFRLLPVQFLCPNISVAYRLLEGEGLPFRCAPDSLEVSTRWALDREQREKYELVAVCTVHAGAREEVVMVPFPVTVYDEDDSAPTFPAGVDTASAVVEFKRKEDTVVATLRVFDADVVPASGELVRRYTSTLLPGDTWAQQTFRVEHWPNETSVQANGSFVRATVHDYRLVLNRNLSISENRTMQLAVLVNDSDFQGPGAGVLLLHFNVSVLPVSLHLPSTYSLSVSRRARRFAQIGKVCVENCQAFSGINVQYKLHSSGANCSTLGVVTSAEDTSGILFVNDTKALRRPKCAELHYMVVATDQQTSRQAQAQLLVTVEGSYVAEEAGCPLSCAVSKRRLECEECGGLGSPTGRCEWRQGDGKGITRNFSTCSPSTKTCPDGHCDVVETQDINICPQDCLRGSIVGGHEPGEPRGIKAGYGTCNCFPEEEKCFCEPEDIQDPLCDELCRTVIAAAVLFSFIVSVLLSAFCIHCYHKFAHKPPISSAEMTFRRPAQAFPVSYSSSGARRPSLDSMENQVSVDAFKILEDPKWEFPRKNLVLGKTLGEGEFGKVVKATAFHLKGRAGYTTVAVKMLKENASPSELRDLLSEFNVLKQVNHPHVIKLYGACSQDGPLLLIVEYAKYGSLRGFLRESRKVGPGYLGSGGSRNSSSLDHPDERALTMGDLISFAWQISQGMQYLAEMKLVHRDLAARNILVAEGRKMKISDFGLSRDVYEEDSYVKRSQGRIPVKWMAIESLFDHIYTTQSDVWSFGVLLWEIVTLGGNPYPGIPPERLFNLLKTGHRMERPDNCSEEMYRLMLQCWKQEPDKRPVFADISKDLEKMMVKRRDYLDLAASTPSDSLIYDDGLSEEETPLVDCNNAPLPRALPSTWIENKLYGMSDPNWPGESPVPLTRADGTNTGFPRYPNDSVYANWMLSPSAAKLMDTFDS
Chain of EGFR (P00533 25-1210): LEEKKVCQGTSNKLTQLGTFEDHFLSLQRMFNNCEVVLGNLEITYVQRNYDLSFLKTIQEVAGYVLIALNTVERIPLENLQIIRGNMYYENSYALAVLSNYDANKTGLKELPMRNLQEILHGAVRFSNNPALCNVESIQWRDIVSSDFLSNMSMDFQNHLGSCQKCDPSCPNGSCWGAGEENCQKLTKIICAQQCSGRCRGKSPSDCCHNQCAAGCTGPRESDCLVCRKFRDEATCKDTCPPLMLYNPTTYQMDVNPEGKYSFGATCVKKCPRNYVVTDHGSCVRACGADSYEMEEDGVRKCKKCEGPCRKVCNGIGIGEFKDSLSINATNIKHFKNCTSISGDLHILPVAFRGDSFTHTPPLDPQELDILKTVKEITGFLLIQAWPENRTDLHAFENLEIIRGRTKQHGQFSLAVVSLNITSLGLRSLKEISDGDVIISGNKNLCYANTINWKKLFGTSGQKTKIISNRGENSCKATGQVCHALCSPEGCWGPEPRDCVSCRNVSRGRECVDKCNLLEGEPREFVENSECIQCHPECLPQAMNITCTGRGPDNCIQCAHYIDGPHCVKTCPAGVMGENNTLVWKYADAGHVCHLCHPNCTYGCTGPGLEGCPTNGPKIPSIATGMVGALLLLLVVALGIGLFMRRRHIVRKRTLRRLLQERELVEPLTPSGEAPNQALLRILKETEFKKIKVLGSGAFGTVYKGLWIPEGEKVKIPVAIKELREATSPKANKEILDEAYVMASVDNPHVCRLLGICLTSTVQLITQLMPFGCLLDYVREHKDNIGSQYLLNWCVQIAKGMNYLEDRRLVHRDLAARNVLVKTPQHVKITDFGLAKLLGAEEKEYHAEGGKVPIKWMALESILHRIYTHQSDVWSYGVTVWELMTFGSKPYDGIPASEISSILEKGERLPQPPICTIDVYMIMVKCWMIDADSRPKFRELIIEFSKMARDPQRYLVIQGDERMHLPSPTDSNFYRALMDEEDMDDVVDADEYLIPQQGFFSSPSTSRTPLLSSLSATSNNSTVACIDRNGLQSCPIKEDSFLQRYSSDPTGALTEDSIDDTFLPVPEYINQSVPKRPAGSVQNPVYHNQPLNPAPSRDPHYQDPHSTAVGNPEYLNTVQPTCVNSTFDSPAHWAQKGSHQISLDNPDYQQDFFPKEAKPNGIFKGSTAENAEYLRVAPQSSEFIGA
Chain of PDGFRβ (P09619 33-1106, species assumed): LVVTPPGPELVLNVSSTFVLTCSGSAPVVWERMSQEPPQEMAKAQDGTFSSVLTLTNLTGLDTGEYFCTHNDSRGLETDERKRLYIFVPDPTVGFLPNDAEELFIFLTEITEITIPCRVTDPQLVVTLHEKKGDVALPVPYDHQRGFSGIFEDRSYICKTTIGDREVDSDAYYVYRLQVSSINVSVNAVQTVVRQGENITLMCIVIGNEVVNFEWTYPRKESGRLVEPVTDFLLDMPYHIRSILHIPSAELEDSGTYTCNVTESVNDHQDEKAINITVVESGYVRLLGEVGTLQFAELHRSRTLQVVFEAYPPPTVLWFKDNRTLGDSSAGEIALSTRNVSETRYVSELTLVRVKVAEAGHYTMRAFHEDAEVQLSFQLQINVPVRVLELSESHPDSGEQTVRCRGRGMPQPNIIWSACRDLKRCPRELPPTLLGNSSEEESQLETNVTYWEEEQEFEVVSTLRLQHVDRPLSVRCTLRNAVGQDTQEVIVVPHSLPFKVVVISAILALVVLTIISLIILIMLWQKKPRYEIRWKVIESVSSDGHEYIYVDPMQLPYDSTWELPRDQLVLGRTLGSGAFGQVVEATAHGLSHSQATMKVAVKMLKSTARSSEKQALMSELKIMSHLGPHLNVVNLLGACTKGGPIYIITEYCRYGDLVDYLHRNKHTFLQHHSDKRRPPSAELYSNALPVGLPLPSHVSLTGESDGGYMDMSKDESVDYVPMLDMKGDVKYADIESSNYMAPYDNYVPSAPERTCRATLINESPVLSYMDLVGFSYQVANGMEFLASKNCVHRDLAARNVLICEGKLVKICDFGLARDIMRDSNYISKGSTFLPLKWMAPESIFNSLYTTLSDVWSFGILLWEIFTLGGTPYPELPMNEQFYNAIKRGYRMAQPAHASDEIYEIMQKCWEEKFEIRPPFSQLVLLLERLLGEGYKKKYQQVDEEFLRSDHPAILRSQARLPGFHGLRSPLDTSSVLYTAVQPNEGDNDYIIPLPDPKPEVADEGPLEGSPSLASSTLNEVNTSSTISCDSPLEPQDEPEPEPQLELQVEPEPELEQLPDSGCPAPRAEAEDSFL
Chain of AXL (P30530 473-894): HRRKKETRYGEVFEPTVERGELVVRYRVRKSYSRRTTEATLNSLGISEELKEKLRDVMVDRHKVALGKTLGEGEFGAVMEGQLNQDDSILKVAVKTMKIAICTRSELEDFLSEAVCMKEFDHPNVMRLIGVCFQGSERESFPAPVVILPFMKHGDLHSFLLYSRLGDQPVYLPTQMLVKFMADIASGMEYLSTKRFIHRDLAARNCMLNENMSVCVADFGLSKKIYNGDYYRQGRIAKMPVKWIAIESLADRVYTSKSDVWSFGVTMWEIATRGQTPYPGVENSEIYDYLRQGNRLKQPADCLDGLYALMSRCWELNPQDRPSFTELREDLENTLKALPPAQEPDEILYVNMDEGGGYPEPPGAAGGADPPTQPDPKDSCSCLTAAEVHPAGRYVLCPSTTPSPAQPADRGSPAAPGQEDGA

Row | Compound | IC50 (3T3swiss) | IC50 (PDGFRβ) | IC50 (Bel-7402) | IC50 (SK-OV-3) | IC50 (BTK) | IC50 (RET) | IC50 (EGFR) | IC50 (A431) | IC50 (A549) | IC50 (FLT-1) | IC50 (A375) | IC50 (HT-29) | IC50 (HCC827) | IC50 (HCT116) | MTD [1] | IC50 (FGFR-1) | IC50 (PC-9) | IC50 (KDR) | IC50 (CFPAC-1) | IC50 (HUVEC) | further results
1 | COc1cc2c(Nc3ccc(Br)cc3F)ncnc2cc1OCCCN(C)C [Compound 29, 4-(4-bromo-2-fluoroanilino)-6-methoxy-7-(3-(dimethylamino)-propoxy)quinazoline] | 1370 nM | 246 nM | 5.88 µM | 2560 nM | 260 nM | 13.4 nM | 127 nM | 2740 nM | 2160 nM | 30.8 nM | 102 nM | 2170 nM | 0.6 nM | 652 nM | 125 to 250 mg/kg | 24.6 nM | 7.1 nM | 17.4 nM | 5.15 µM | 23.8 nM | IC50 (TT): 127 nM; IC50 (SGC7901): 4.45 µM; IC50 (H292): 45.6 nM; IC50 (Eca109): 5.42 µM; IC50 (AXL): 1830 nM; IC50 (A498): 2360 nM
2 | COc1cc2c(Nc3ccc(Br)cc3F)ncnc2cc1OCCCCN1CCCC1 [Compound 30, 4-(4-bromo-2-fluoroanilino)-6-methoxy-7-(4-(pyrrolidin-1-yl)butoxy)quinazoline] | 1490 nM | 247 nM | 4.57 µM | 2500 nM | 261 nM | 14.6 nM | 118 nM | 1570 nM | 1510 nM | 25.9 nM | 196 nM | 2190 nM | 0.5 nM | 775 nM | 250 to 500 mg/kg | 25.8 nM | 7 nM | 15.7 nM | 5.15 µM | 27.5 nM | IC50 (TT): 126 nM; IC50 (SGC7901): 4.19 µM; IC50 (H292): 43.2 nM; IC50 (Eca109): 5.52 µM; IC50 (AXL): 2010 nM; IC50 (A498): 2880 nM
3 | COc1cc2c(Nc3ccc(F)c(Cl)c3)ncnc2cc1OCCCCN(C)C [Compound 37, 4-(3-chloro-4-fluoroanilino)-6-methoxy-7-(4-(dimethylamino)-butoxy)quinazoline] | 1550 nM | 189 nM | 5.59 µM | 2090 nM | 312 nM | 15.8 nM | 98.5 nM | 1090 nM | 1770 nM | 30.4 nM | 78.2 nM | 2500 nM | 0.6 nM | 562 nM | 250 to 500 mg/kg | 27.7 nM | 8.7 nM | 15.9 nM | 5.86 µM | 29.5 nM | IC50 (TT): 134 nM; IC50 (SGC7901): 4.02 µM; IC50 (H292): 39.6 nM; IC50 (Eca109): 5.75 µM; IC50 (AXL): 1720 nM; IC50 (A498): 2160 nM
4 | COc1cc2c(Nc3ccc(F)c(Cl)c3)ncnc2cc1OCCCN(C)C [Compound 38, 4-(3-chloro-4-fluoroanilino)-6-methoxy-7-(3-(dimethylamino)-propoxy)quinazoline] | 1560 nM | 268 nM | 5.94 µM | 2060 nM | 325 nM | 19.8 nM | 101 nM | 1460 nM | 2360 nM | 35.6 nM | 178 nM | 2660 nM | 0.7 nM | 621 nM | 125 to 250 mg/kg | 28.9 nM | 7.7 nM | 17.6 nM | 5.79 µM | 26.5 nM | IC50 (TT): 115 nM; IC50 (SGC7901): 3.85 µM; IC50 (H292): 45.2 nM; IC50 (Eca109): 5.93 µM; IC50 (AXL): 2150 nM; IC50 (A498): 2260 nM
5 | COc1cc2c(Nc3ccc(F)c(Cl)c3)ncnc2cc1OCCCN1CCCC1 [Compound 39, 4-(3-chloro-4-fluoroanilino)-6-methoxy-7-(3-(pyrrolidin-1-yl)propoxy)quinazoline] | 1750 nM | 258 nM | 5.66 µM | 1320 nM | 297 nM | 10.2 nM | 121 nM | 2260 nM | 2660 nM | 34.6 nM | 197 nM | 2870 nM | 0.2 nM | 510 nM | 62.5 to 125 mg/kg | 19.6 nM | 6.6 nM | 18.9 nM | 5.25 µM | 18.8 nM | IC50 (TT): 186 nM; IC50 (SGC7901): 4.52 µM; IC50 (H292): 45.7 nM; IC50 (Eca109): 5.75 µM; IC50 (AXL): 2050 nM; IC50 (A498): 2310 nM
6 | COc1cc2c(Nc3ccc(F)c(Cl)c3)ncnc2cc1OCCCCN1CCCC1 [Compound 40, 4-(3-chloro-4-fluoroanilino)-6-methoxy-7-(4-(pyrrolidin-1-yl)butoxy)quinazoline] | 1810 nM | 241 nM | 5.88 µM | 1190 nM | 306 nM | 17.3 nM | 113 nM | 1560 nM | 2400 nM | 39.8 nM | 247 nM | 2330 nM | 0.1 nM | 605 nM | 125 to 250 mg/kg | 28.4 nM | 7.8 nM | 18.7 nM | 5.32 µM | 12.4 nM | IC50 (TT): 93 nM; IC50 (SGC7901): 3.69 µM; IC50 (H292): 56.4 nM; IC50 (Eca109): 5.46 µM; IC50 (AXL): 1990 nM; IC50 (A498): 2460 nM
